# Test results as given in patent US20220235065A1 (Epizyme, Inc., priority 2016, published 2022).
# Where a name gives a salt, the structure may show the parent alone.
# Biological target: T1, recombinant purified human EHMT2 913-1193 (Homo sapiens, UniProt Q96KQ7)
# T1 construct: Recombinant purified human EHMT2 913-1193 (55 μM) synthesized by Viva was used for all experiments; purchased Viva
# T1 sequence (Q96KQ7 913-1193): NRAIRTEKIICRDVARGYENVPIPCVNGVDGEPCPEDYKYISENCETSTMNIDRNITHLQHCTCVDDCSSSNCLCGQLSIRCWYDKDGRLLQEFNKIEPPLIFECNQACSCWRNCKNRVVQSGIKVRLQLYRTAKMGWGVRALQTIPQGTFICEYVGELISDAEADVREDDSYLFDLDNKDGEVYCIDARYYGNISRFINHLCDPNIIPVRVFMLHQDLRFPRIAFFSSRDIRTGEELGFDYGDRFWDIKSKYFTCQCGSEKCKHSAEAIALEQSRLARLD
# Assay: EHMT2 enzyme assay on histone peptide substrate (3H-SAM Flashplate)
# Type: biochemical
# Settings: read-out: EHMT2 PEP (IC50 μM)
# Outline: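 Compounds (10-point 3-fold series, top 50 μM final, 2% DMSO) preincubated 30 min with 0.031 nM EHMT2 in 20 mM Bicine pH 7.5, 1 mM TCEP; reaction started with 3H-SAM and biotinylated H3 1-15 peptide, both at Km, run 60 min at room temperature. Flashplate capture; IC50 from four-parameter fit, triplicates.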
row,SMILES,IC50
1,CNc1cc(C)nc(Nc2ccc(OC)c(-n3cc4ccncc4n3)c2)n1 [Compound 41],> 10 µM
2,CNc1cc(C)nc(Nc2ccc(OC)c(-c3ccc4cc[nH]c4n3)c2)n1 [Compound 42],> 10 µM
3,CNc1cc(C)nc(Nc2ccc(OC)c(-c3nc4cnccc4[nH]3)c2)n1 [Compound 47],1 to 10 µM
4,CNc1cc(C)nc(Nc2ccc(OC)c(-c3cc4cnccc4[nH]3)c2)n1 [Compound 48],0.1 to 1 µM
5,CCn1cc(NC(=O)c2cc(Nc3nc(C)cc(NC)n3)ccc2OC)cn1 [Compound 49],> 10 µM
6,CNc1cc(C)nc(Nc2cnc(OC)c(-n3cc4c(n3)CCNC4)c2)n1 [Compound 50],0.1 to 1 µM
7,CNc1cc(C)nc(Nc2cnc(OC)c(-c3nc4cnccn4n3)c2)n1 [Compound 60],> 10 µM
8,CNc1cc(C)nc(Nc2ccc(OC)c(-n3cnc(CN(C)C)n3)c2)n1 [Compound 61],> 10 µM
9,CNc1cc(C)nc(Nc2cnc(OC)c(-n3cnc(CN(C)C)n3)c2)n1 [Compound 62],> 10 µM
10,CNc1cc(C)nc(Nc2ccc(OC)c(-n3cc(CN(C)C)nn3)c2)n1 [Compound 66],0.1 to 1 µM
11,CNc1cc(C)nc(Nc2ccc(OC)c(-n3cnc(CN4CC(F)C4)n3)c2)n1 [Compound 68],> 10 µM
12,CNc1cc(C)nc(Nc2ccc(OC)c(-c3nnc(CN(C)C)[nH]3)c2)n1 [Compound 73],> 10 µM
13,CNc1cc(C)nc(Nc2cnc(OC)c(-n3cc(CN(C)C)cn3)c2)n1 [Compound 74],0.1 to 1 µM
14,CNc1cc(C)nc(Nc2ccc(OC)c(-n3ncc4c3CN(C(C)=O)CC4)c2)n1 [Compound 75],> 10 µM
15,CNc1cc(C)nc(Nc2ccc(OC)c(-n3nccc3CNC(C)=O)c2)n1 [Compound 76],> 10 µM
16,CNc1cc(C)nc(Nc2ccc(OC)c(-c3nnc4n3CCN(C(=O)OC(C)(C)C)C4)c2)n1 [Compound 77],> 10 µM
17,CNc1cc(C)nc(Nc2ccc(OC)c(-c3nc4c([nH]3)CNCC4)c2)n1 [Compound 78],1 to 10 µM
18,CNc1cc(C)nc(Nc2ccc(OC)c(-c3nc4c([nH]3)CN(C)CC4)c2)n1 [Compound 79],1 to 10 µM
19,COc1ncc(Nc2nc(C)cc(NCC3COC3)n2)cc1-n1cc(CN(C)C)nn1 [Compound 86],> 10 µM
20,CNc1cc(C)nc(Nc2ccc(OC)c(-c3cc4cnccn4n3)c2)n1 [Compound 93],> 10 µM
21,CNc1cc(C)nc(Nc2ccc(OC)c(-n3cc(C)c(CNC(C)=O)n3)c2)n1 [Compound 94],> 10 µM

row,SMILES,IC50
1,CNc1cc(C)nc(Nc2ccc(OC)c(-n3ccc(CNC(C)=O)n3)c2)n1 [Compound 95],> 10 µM
2,CNc1cc(C)nc(Nc2ccc(OC)c(-n3ccc(CN(C)C(C)=O)n3)c2)n1 [Compound 96],> 10 µM
3,CNc1cc(C)nc(Nc2ccc(OC)c(-n3cc4c(C)nccc4n3)c2)n1 [Compound 99],1 to 10 µM
4,CNc1cc(C)nc(Nc2ccc(OC)c(-n3cc4c(OC)nccc4n3)c2)n1 [Compound 100],> 10 µM
5,CNc1cc(C)nc(Nc2ccc(OC)c(-n3cc(C)c(CN(C)C)n3)c2)n1 [Compound 102],1 to 10 µM
6,CNC(=O)c1cnn(-c2cc(Nc3nc(C)cc(NC)n3)ccc2OC)c1 [Compound 104],> 10 µM
7,CNC(=O)c1c(C)nn(-c2cc(Nc3nc(C)cc(NC)n3)ccc2OC)c1C [Compound 105],> 10 µM
8,CNCc1c(C)nn(-c2cc(Nc3nc(C)cc(NC)n3)ccc2OC)c1C [Compound 106],> 10 µM
9,"CNc1cc(C)nc(Nc2ccc(OC)c(-n3cc(CN(C)C)cn3)c2)n1 [Compound 109, N2-(3-(4-((dimethylamino)methyl)-1H-pyrazol-1-yl)-4-methoxyphenyl)-N4,6-dimethylpyrimidine-2,4-diamine]",< 0.1 µM
10,CNc1cc(C2CCOCC2)c2cc(OC)c(-n3cc(CN(C)C)nn3)cc2n1 [Compound 116],1 to 10 µM
11,CNC(=O)c1cn(-c2cc(Nc3nc(C)cc(NC)n3)ccc2OC)nn1 [Compound 117],> 10 µM
12,CNc1cc(C)nc(Nc2ccc(OC)c(-n3ncc4ncccc43)c2)n1 [Compound 119],> 10 µM
13,CNCc1cn(-c2cc3nc(NC)cc(C)c3cc2OC)nn1 [Compound 122],1 to 10 µM
14,CNc1cc(C)c2cc(OC)c(-n3cc(C4CCCN4)nn3)cc2n1 (stereo not shown) [Compound 125],0.1 to 1 µM
15,CNC(=O)c1nn(-c2cc(Nc3nc(C)cc(NC)n3)ccc2OC)cc1C [Compound 134],> 10 µM
16,"CNc1cc(C)nc(Nc2ccc(OC)c(-n3cc(C4CCCN4)nn3)c2)n1 (stereo not shown) [Compound 137, N2-(4-methoxy-3-(4-(pyrrolidin-2-yl)-1H-1,2,3-triazol-1-yl)phenyl)-N4,6-dimethylpyrimidine-2,4-diamine]",< 0.1 µM
17,CNc1cc(C)nc(Nc2ccc(OC)c(-n3nnc(C)c3CN(C)C)c2)n1 [Compound 138],> 10 µM
18,CNc1cc(C)nc(Nc2ccc(OC)c(-n3nnc(CN(C)C)c3C)c2)n1 [Compound 139],> 10 µM
19,CCN(CC)Cc1cn(-c2cc(Nc3nc(C)cc(NC)n3)ccc2OC)nn1 [Compound 143],0.1 to 1 µM
20,CNc1cc(C)nc(Nc2ccc(OC)c(-n3cc4cc(C)ccc4n3)c2)n1 [Compound 144],1 to 10 µM
21,CNc1cc(C)nc(Nc2ccc(OC)c(-n3cc4cc(C5CC5)ccc4n3)c2)n1 [Compound 145],> 10 µM

# Results, then the compound that gave them:
row,IC50,SMILES
1,< 0.1 µM,CNc1cc(C)nc(Nc2ccc(OC)c(-n3cc4c(n3)CCN(C)C4)c2)n1 [Compound 2]
2,1 to 10 µM,CNc1cc(C)nc(Nc2ccc(OC)c(-n3cc4c(n3)CN(C)CC4)c2)n1 [Compound 3]
3,1 to 10 µM,"CNc1cc(C)nc(Nc2ccc(OC)c(-n3ccc(CN4CCCC4)n3)c2)n1 [Compound 4, trifluoroacetic acid]"
4,1 to 10 µM,"CNc1cc(C)nc(Nc2ccc(OC)c(-n3cc(CN4CCCC4)cn3)c2)n1 [Compound 5, 2-N-[4-methoxy-3-[4-(pyrrolidin-1-ylmethyl)-1H-pyrazol-1-yl]phenyl]-4-N,6-dimethylpyrimidine-2,4-diamine]"
5,> 10 µM,CNc1cc(C)nc(Nc2ccc(OC)c(-n3cc4c(n3)CCOC4)c2)n1 [Compound 43]
6,> 10 µM,"CNc1cc(C)nc(Nc2ccc(OC)c(-n3cc4c(n3)CCCN4)c2)n1 [Compound 56, N2-(4-methoxy-3-(4,5,6,7-tetrahydro-2H-pyrazolo[4,3-b]pyridin-2-yl)phenyl)-N4,6-dimethylpyrimidine-2,4-diamine hydrochloride]"
7,1 to 10 µM,CNc1cc(C)nc(Nc2cnc(OC)c(-n3cc4c(n3)CCN(C)C4)c2)n1 [Compound 57]
8,> 10 µM,CNc1cc(C)nc(Nc2cc(-n3cc4c(n3)CCN(C)C4)c(OC)cn2)n1 [Compound 65]
9,> 10 µM,CNc1cc(C)nc(Nc2ccc(OC)c(-n3cnc(CN4CCC4)n3)c2)n1 [Compound 67]
10,> 10 µM,CNc1cc(C)nc(Nc2ccc(OC)c(-n3cc4c(n3)CCN(C3COC3)C4)c2)n1 [Compound 69]
11,0.1 to 1 µM,CCN1CCc2nn(-c3cc(Nc4nc(C)cc(NC)n4)ccc3OC)cc2C1 [Compound 70]
12,1 to 10 µM,CNc1cc(C)nc(Nc2ccc(OC)c(-n3cc(C)c4c3CCN(C)C4)c2)n1 [Compound 81]
13,0.1 to 1 µM,CNc1cc(C)nc(Nc2ccc(OC)c(-n3cc4c(n3)CCN(C3CC3)C4)c2)n1 [Compound 82]
14,0.1 to 1 µM,CNC(=O)CCNc1cc(C)nc(Nc2ccc(OC)c(-n3cc4c(n3)CCN(C)C4)c2)n1 [Compound 87]
15,0.1 to 1 µM,CNC(=O)N1CC(CNc2cc(C)nc(Nc3ccc(OC)c(-n4cc5c(n4)CCN(C)C5)c3)n2)C1 [Compound 88]
16,> 10 µM,CNC(=O)c1cn(-c2cc(Nc3nc(C)cc(NC)n3)ccc2OC)nc1C [Compound 103]
17,< 0.1 µM,"CNc1cc(C)nc(Nc2ccc(OC)c(-n3ncc4c3CCNC4)c2)n1 [Compound 113, N2-(4-methoxy-3-(4,5,6,7-tetrahydro-1H-pyrazolo[4,3-c]pyridin-1-yl)phenyl)-N4,6-dimethylpyrimidine-2,4-diamine]"
18,0.1 to 1 µM,CNc1cc(C)nc(Nc2ccc(OC)c(-n3cc(CN4CCC4)nn3)c2)n1 [Compound 121]
19,0.1 to 1 µM,CNc1cc(C)nc(Nc2ccc(OC)c(-n3cc(C4CCCN4C)nn3)c2)n1 (stereo not shown) [Compound 136]
